Source: US5747503A, “Selective inhibitors of biogenic amine transporters” (priority 1996, dated 1998)
Entries after “also recorded” stand apart in the source; their conditions may differ. Like-named read-outs stand apart in the source and are kept apart here.

Experiments:
[1] = test system: PCP site 2; type: binding, guinea pig
Method: Large batches of frozen membranes were prepared with minor modifications of published procedures (Rothman, et al. (1989), supra). Twenty to thirty frozen guinea pig brains with cerebellum were thawed for 15 minutes and homogenized with a Polytron in ice-cold 5 mM Tris-HCl, pH 8.0 (10 ml/brain). The homogenate was centrifuged at 37,000×g for 10 minutes, and the pellet was washed by resuspension in the same volume of buffer followed by recentrifugation. The pellets were resuspended in an equal volume of 5 mM Tris-HCl, pH 8.0, and the concentration was adjusted to 50 mM by the addition of 1M Tris-HCl, pH 8.0. The homogenate was centrifuged for 10 min at 37,000×g. The pellets were then washed three times by resuspension and centrifugation using 50 mM Tris-HCl, pH 8.0. The final pellets were resuspended in the Tris-HCl buffer (0.5 ml/brain), pooled and 1 ml aliquots were distributed to microfuge tubes, which were stored at -70° for assay.
The [^3 H]TCP binding assay for PCP site 2 was conducted with minor modifications of published protocols (Rothman, et al. (1989), supra). Briefly, 12×75 mm polystyrene test tubes were prefilled with 100 μl of [^3 H]TCP (2 nM final concentration) in a protease inhibitor cocktail (PIC) containing 5000 nM (+) -MK801, 100 μl of distilled H2 O or drug (in distilled H2 0), 50 μl of buffer (5 mM Tris-HCL, pH 8.0), and 750 μl of membrane (0.5-1.0 mg/ml protein, in 5 mM Tris-HCl, pH 8.0). […] The protease inhibitor cocktail was composed of 25 μg/ml leupeptin, 25 μg/ml chymostatin, 0.1 mM EDTA, and 0.1 mM ethylene glycol-bis-(beta-aminoethyl-ether)-N,N,N',N'-tetraacetic acid (EGTA). The incubation time was 18-24 hours at 4° C. (steady state) in a final volume of 1 ml. Triplicate samples were filtered with an MR24 Brandel Cell Harvester and washed with two 5 ml aliquots of ice cold buffer. Whatman GF/B filters were presoaked in buffer containing 2% polyethylenimine. The tritium retained on the filters was measured using a Taurus scintillation counter at 44% efficiency after an overnight extraction into ICN Cytoscint cocktail. Non specific binding was determined using 10 μM of TCP. Protein was determine using the method of Lowry, et al., supra.
(§1) Inhibition curves were fit to the two parameter logistic equation for the best-fit estimates of the IC50 using nonlinear least squares curve fitting methods as previously described (Rothman et al. (1993), supra); Jones, S. M. and Rogawski, M. A. Mol. Neuropharmacol. 2: 303-310 (1992)).
^a The binding assays for PCP (site 2) and PCP (site 1) were conducte
as previously reported (Rothman, R. B., et al., In: Multiple Sigma and PC
Receptor Ligands: Mechanisms for Neuromodulation and Protection 307-330
(Domino, E. F. and Kamenka, J. M., eds., 1992) using [^3 H]TCP in the
presence of (+)MK801 for site 2 and [^3 HMK801 for site 1 except that
the [^3 H]TCP assays were terminated after 18-24 hours of incubation

[2] = biological target: T1, DA transporter (Rattus norvegicus, UniProt P23977); test: [^3 H]CFT binding to DA transporter
T1 construct: Striata were dissected using glass manipulators; from tissue; host or cells: striatum of male Sprague-Dawley rats, membranes
Method: For [^3 H]J2B-carbomethoxy-3B-(4-fluorophenyl)-tropane (CFT, WIN35,428) binding assays, male Sprague-Dawley rats (200 to 300 gm) were anesthetized with C02 gas, and decapitated. Striata were dissected using glass manipulators, placed in small plastic containers, and then allowed to freeze by placing the container in dry ice.
Striata collected in this way were stored at […]. On the day of the assay, each striatum was placed in ice-cold binding buffer (BB: 55.2 mM sodium phosphate buffer, pH 7.4, 5 ml per caudate), and homogenized while still frozen with a Polytron. The homogenate was centrifuged for 10 min at 30,000×g, and the pellet was resuspended in an equal volume of BB. The homogenate was recentrifuged, and the pellet was resuspended in an equal volume of BB. An aliquot was saved for determination of protein (0.5 ml), and the remaining homogenate was brought up to a final volume of 22 ml/striatum using ice-cold BB. […] Aliquots of membranes were then used in the radioligand binding assays.
The [^3 H]nisoxetine assay for the norepinephrine transporter (NE) was carried out as described (Rothman, et al. (1993), supra; Tejani-Butt, S. M., et al. Eur. J. Pharmacol. 191:239-243 (1990)). DA transporters were labeled with [^3 H)CFT with minor modifications of published protocols (Madras, B. K., et al. Mol. Pharmacol. 36: 518-524 (1989)). Briefly, 12×75 mm polystyrene test tubes were prefilled with 100 μl of drug, 100 μl of radiolabeled (1 nM final concentration), 50 μl of buffer. Drugs were dissolved in BB containing 1 mg/ml bovine serum albumin (BB/BSA). Radioligands were made to a final concentration in a protease inhibitor cocktail containing 1 mg/ml BSA {BB containing chymostatin (25 μg/ml), leupeptin (25 μg/ml), EDTA (100 μM), and EGTA (100 μM)}. The assay was initiated by the addition of 750 μl of membranes, prepared as described above. Brandel cell harvesters were used to filter the samples over Whatman GF/B filters, which were presoaked in wash buffer (ice-cold 10 mM TRIS-HCL, pH 7.4 containing 150 mM NaCl) containing 2% polyethylenimine. In this procedure, samples were filtered and then washed with two 4 ml aliquots of ice-cold wash buffer. Nonspecific binding was defined using 10 μM (final concentration) GBR12909. All subsequent steps were identical to those described above.
as §1
Synaptosomal uptake and ligand binding assays were conducted as described
Preliminary experiments were conducted to determine the doserange
The data of two experiments were
pooled, and fit to the two parameter logistic equation for the bestfit

[3] = test system: NMDA receptor; test: NMDA-induced current in cultured hippocampal neurons, whole-cell recording; type: cell-based, rat; details: for IC50: Table 2
Method: Whole-cell recordings of NMDA-induced currents in cultured rat hippocampal neurons were carried out as described previously (Subramaniam, S., et al. Neurosci. Lett. 147: 213-216 (1992)). Hippocampal neurons grown in primary culture from 19-day-old Sprague-Dawley rat embryos were used 7-14 days after plating. The extracellular recording solution consisted of (in mM): 140 NaCl, 5 KCl, 0.1 CaCl2, and 10 HEPES (osmolality, 315-325 mOsm; pH, 7.4). Tetrodotoxin (1 μM) and strychnine (1 μM) were added to block Na+channel currents and glycine-activated Cl^- currents, respectively. Patch pipettes (2-5 M.OMEGA.) were prepared from filament-containing thin wall glass capillary tubes and filled with an intracellular solution that consisted of (in mM): 145 CsCl, 2 MgCl2, 5 HEPES, 0.1 CaCl2, and 1 EGTA (osmolality, 310 mOsm; pH, 7.4). Drugs were dissolved in recording solution and applied via a rapid gravity-fed perfusion system. Flow of the drug solutions was regulated by a microvalve operated by a programmable controller.
as §1

[4] = Table 1, [^3 H]TCP in presence of (+)MK801, 18-24 hours at 4° C.
[5] = Table 2, nM ± SD, rat striatum, read-out: [^3 H]CFT Binding IC50

T1 sequence (P23977 whole entry): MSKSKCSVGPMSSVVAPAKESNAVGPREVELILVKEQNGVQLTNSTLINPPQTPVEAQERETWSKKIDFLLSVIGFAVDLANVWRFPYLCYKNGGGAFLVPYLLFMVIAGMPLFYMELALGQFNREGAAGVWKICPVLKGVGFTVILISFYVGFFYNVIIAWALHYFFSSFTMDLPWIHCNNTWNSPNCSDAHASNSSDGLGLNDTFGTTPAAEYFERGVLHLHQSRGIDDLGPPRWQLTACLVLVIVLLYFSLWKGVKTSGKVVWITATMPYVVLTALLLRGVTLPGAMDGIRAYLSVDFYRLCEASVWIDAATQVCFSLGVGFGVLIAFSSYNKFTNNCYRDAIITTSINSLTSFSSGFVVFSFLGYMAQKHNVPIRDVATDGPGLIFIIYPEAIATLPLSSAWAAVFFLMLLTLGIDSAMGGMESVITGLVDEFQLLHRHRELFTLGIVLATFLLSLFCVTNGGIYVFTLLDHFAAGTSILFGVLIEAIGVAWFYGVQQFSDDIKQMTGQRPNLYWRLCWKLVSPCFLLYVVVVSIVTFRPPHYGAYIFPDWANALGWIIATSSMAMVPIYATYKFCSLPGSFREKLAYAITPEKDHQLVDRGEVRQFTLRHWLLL

C[C@]12N[C@H](Cc3ccccc31)c1ccccc12 [(+)-MK801] was tested, and the IC50 [1, 4] was 15900 nM, the IC50 ([1]; Table 2, nM ± SD) was over 10000 nM and the “[^3 H]CFT binding inhibition in words” value [2] was “negligible affinity”. For the same molecule, the IC50 [2, 5] was over 15000 nM.
For CNC1CC(c2ccc(Cl)c(Cl)c2)c2ccccc21 (centres unmarked) [Indatraline], the IC50 [1] was 2500 nM, the IC50 ([1]; Table 2, nM ± SD) was 2530 ± 485 nM and the “[^3 H]CFT binding inhibition in words” value [2] was “potently inhibited; also recorded: potent inhibitor”. The “inhibition of NMDA-induced current responses in words” value [3] was “very low potency” and the IC50 [3] was 95000 nM.
In the case of c1ccc(C2(N3CCCCC3)CCCCC2)cc1 [PCP, phencyclidine], the “affinity/selectivity for PCP site 2 in words” value (from here on “affinity/selectivity”) [1] is reported as “approximately the same potency at both sites; also recorded: moderate and about equal affinity for PCP site 1 and PCP site 2”, the IC50 [1, 4] is reported as 92.4 ± 7 nM and the IC50 ([1]; Table 2, nM ± SD) is reported as 92.4 ± 7 nM. The IC50 [2] was over 1500 nM and the “[^3 H]CFT binding inhibition in words” value [2] was “lower affinity”.
In the case of CN1[C@H](Cc2ccccc2)C[C@H]2Cc3ccccc3[C@H]21 (relative stereo) [RTI-4793-14, (2RS, 3aSR, 8aRS)-1,2,3a,8,8a-Hexahydro-2-benzyl-1-methyl-indeno[1,2-b]pyrrole], the “affinity/selectivity” value [1] is reported as “high affinity and selectivity; also recorded: highest affinity for PCP site 2 of any of the drugs tested”, the IC50 [1, 4] is reported as 37.9 nM and the IC50 ([1]; Table 2, nM ± SD) is reported as 37.9 ± 5.7 nM. For the same molecule, the IC50 ([1]; Table 3, guinea pig membranes) was 37.9 ± 5.7 nM, the “affinity/selectivity” value ([1]; listed as 3b) was “potent and selective ligand for site 2” and the “[^3 H]CFT binding inhibition in words” value [2] was “moderate potency”. For the same molecule, the IC50 [2, 5] was 850 ± 101 nM, the “inhibition of NMDA-induced current responses in words” value [3] was “low potency; also recorded: very low potency inhibitor” and the IC50 [3] was 768000 nM.
